Measured values as given in patent publication US9597407B2, “Targeted antimicrobial moieties” (C3 Jian, Inc., priority 2009, dated 2017).
≈ marks a conversion by molar mass, not a printed value. Bridge positions count the residues as written; N and C are the ends. Square brackets hold non-standard residues; d marks the D form. Peptide text beside a SMILES is read from it. I, II: the chains in the order shown. Aoc = NCCCCCCCC(=O)O

How the values were obtained:
S. mutans [1] = type: cell-based, Streptococcus mutans; conditions: average MIC with standard deviation, n = 10 assays
Procedure: (§1) The active AMPs, STAMPs and the like can be identified and/or validated using an in vitro screening assay. Indeed, in many instances the AMPs and/or STAMPS described herein will be used in vitro as preservatives, topical antimicrobial treatments, and the like.
(§2) Typically, the in vitro antimicrobial activity of antimicrobial agents is tested using standard NCCLS bacterial inhibition assays, or MIC tests (see, National Committee on Clinical Laboratory Standards “Performance Standards for Antimicrobial Susceptibility Testing,” NCCLS Document M100-S5 Vol. 14, No. 16, December 1994; “Methods for dilution antimicrobial susceptibility test for bacteria that grow aerobically-Third Edition,” Approved Standard M7-A3, National Committee for Clinical Standards, Villanova, Pa.).
(§3) Briefly, ˜1×10^5 cfu/mL bacteria were diluted in TH (S. mutans), or Mueller-Hinton (MH) broth (all other organisms) and distributed to 96-well plates. Serially-diluted (2-fold) peptides were then added and the plates incubated at 37° C. for 18-24 h. […] All experiments were conducted 10 times.

P. aeruginosa [2] = conditions: average MIC with standard deviation, n = 10 assays
Procedure: (§4) The active AMPs, STAMPs and the like can be identified and/or validated using an in vitro screening assay.
as §3, with “Peptides were evaluated for basic antimicrobial activity by broth microdilution, as described previously (Eckert et al. (2006) Antimicrob Agents Chemother., 50: 3651-3657; Eckert et al. (2006) Antimicrob Agents Chemother., 50: 1480-1488). Briefly,” for “Briefly,”

S. epidermidis [3] = conditions: average MIC with standard deviation, n = 10 assays
Procedure: as §4
as §3, with “Peptides were evaluated for basic antimicrobial activity by broth microdilution, as described previously (Eckert et al. (2006) Antimicrob Agents Chemother., 50: 3651-3657; Eckert et al. (2006) Antimicrob Agents Chemother., 50: 1480-1488). Briefly,” for “Briefly,”

E. coli [4] = type: cell-based, Escherichia coli; conditions: average MIC with standard deviation, n = 10 assays
Procedure: as §1, §2, §3

[5] = system: Klebsiella pneumoniae KAY 2026; type: cell-based; conditions: K. pneumoniae; average MIC with standard deviation, n = 10 assays
Procedure: (§5) Streptococcus mutans JM11 (spectinomycin resistant, UA140 background) was grown in Todd-Hewitt (TH) broth under anaerobic conditions (80% N2, 15% CO2, 5% H2) at 37° C. Merritt et al. (2005) J Microbiol Meth., 61: 161-170. All bacteria were grown overnight to an OD600 of 0.8-1.0 prior to appropriate dilution and antimicrobial testing.
as §3

[6] = system: Staphylococcus aureus Newmann; type: cell-based; conditions: S. aureus; average MIC with standard deviation, n = 10 assays
Procedure: as §5, §3

S. mutans [7] = assay: Post-antibiotic effect assay, monoculture growth after 10 min treatment; type: cell-based, Streptococcus mutans; conditions: peptide 10 min, then fresh medium
Procedure: The activity and selectivity of MH-STAMPs after a 10 min incubation was determined by growth retardation experiments against targeted and untargeted bacteria in monocultures, as described previously (Id.). Cells from overnight cultures were diluted to ˜5×10^6 cfu/mL in MH (or TH with 1% sucrose for S. mutans), normalized by OD600 0.05-0.1 and seeded to 96-well plates. Cultures were then grown under the appropriate conditions for 2 h (3 h for S. mutans) prior to the addition of peptides for 10 min. Plates were then centrifuged at 3000×g for 5 min, the supernatants discarded, fresh medium returned (MH or TH without sucrose for S. mutans), and incubation resumed. Bacterial growth after treatment was then monitored over time by OD600.
MH-STAMP antimicrobial kinetics was ascertained utilizing a variation of the classical post-antibiotic effect assay, which measures the ability of an agent to affect an organism's growth after a short exposure period. Monocultures of MH-STAMP-targeted and untargeted organisms were exposed to M8(KH)-20, M8(BL)-20, BL(KH)-20, or unmodified BD2.20, then allowed to recover. […] Furthermore, replacement of the targeting region with a non-binding peptide abolishes specific activity.

S. mutans [8] = assay: Microbial population shift assay, mixed planktonic culture; type: cell-based, Streptococcus mutans; conditions: 10 μM peptide, 24 h, detection limit 200 cfu/mL
Procedure: (§6) Peptide (10 μM) or mock-treatment (1×PBS) was then added and samples were incubated at 37° C. for 24 h under anaerobic conditions (80% N2, 15% CO2, 5% H2). […] Plates were then incubated 37° C. under aerobic conditions (TH plates were incubated anaerobically) and colonies counted after 24 h to determine survivors. […] Gram stains and direct microscopic observation (from select isolated colonies) were undertaken to confirm species identity (data not shown). The detection limit of the assay was 200 cfu/mL.
(§7) We hypothesized that potential MH-STAMP dual-functionality could affect a particular set of bacteria within a mixed population, thereby promoting the outgrowth of non-targeted organisms and “shifting” the constituent makeup. To examine this possibility, defined mixed populations of planktonic cells were treated continuously and the make-up of the community examined after 24 h.

P. aeruginosa [9] = assay: as above; type: cell-based, Pseudomonas aeruginosa; conditions: 10 μM peptide, 24 h, detection limit 200 cfu/mL
Procedure: as §6, §7

E. coli [10] = assay: as above; type: cell-based, Escherichia coli; conditions: 10 μM peptide, 24 h, detection limit 200 cfu/mL
Procedure: as §6, §7

S. epidermidis [11] = assay: as above; type: cell-based, Staphylococcus epidermidis; conditions: 10 μM peptide, 24 h, detection limit 200 cfu/mL
Procedure: as §6, §7

CC[C@H](C)[C@H](NC(=O)[C@H](Cc1ccccc1)NC(=O)CCCCCCCNC(=O)[C@H](CCCCNC(=O)CNC(=O)CNC(=O)CNC(=O)[C@H](C)NC(=O)[C@H](CCC(=O)O)NC(=O)[C@H](CC(N)=O)NC(=O)[C@H](C)NC(=O)[C@H](C)NC(=O)[C@@H](N)CC(=O)O)NC(=O)CNC(=O)CNC(=O)CNC(=O)[C@H](CCCNC(=N)N)NC(=O)[C@H](CC(N)=O)NC(=O)[C@H](CC(C)C)NC(=O)[C@H](Cc1ccccc1)NC(=O)[C@H](CCCNC(=N)N)NC(=O)[C@H](Cc1ccccc1)NC(=O)[C@H](Cc1ccccc1)NC(=O)[C@@H](NC(C)=O)[C@@H](C)O)C(=O)N[C@@H](CCCNC(=N)N)C(=O)N[C@@H](CCCCN)C(=O)N[C@@H](Cc1ccccc1)C(=O)N[C@@H](CC(C)C)C(=O)N[C@@H](CCCCN)C(=O)N[C@@H](CCCCN)C(=O)N[C@@H](Cc1c[nH]c2ccccc12)C(=O)N[C@@H](CC(C)C)C(=O)N[C@@H](CC(C)C)C(N)=O [M8(BL)-20] (I: Ac-TFFRFLNRGGGK[Aoc]FIRKFLKKWLL-NH2 / II: H-DAANEAGGG; amide I:12-II:C)
MIC (S. mutans [1]): 6.25 µM (≈ 23.7 µg/mL)
MIC (P. aeruginosa [2]): 50 µM (≈ 190 µg/mL)
MIC (S. epidermidis [3]): 6.25 µM (≈ 23.7 µg/mL)
MIC (E. coli [4]): 5.97 ± 0.94 µM (≈ 22.7 µg/mL)
MIC [5]: 6.88 ± 1.98 µM (≈ 26.1 µg/mL)
MIC [6]: 18.05 ± 6.58 µM (≈ 68.6 µg/mL)
S. mutans growth (OD600) after treatment (S. mutans [7]): effectively retarded
surviving S. mutans cfu/mL (S. mutans [8]): greatly reduced compared to input cfu/mL
surviving P. aeruginosa cfu/mL (P. aeruginosa [9]): not affected or affected to a lesser extent
surviving E. coli cfu/mL (E. coli [10]): not affected or affected to a lesser extent
surviving S. epidermidis cfu/mL (S. epidermidis [11]): not affected or affected to a lesser extent
